The values that follow come from ChEMBL document CHEMBL1201862, “PubChem BioAssay data set” (2004).

Active and inactive are the calls of the source.

In one experiment the target is T1, Hexokinase HKDC1 (Homo sapiens, UniProt Q2TB90).
T1 sequence (Q2TB90 whole entry): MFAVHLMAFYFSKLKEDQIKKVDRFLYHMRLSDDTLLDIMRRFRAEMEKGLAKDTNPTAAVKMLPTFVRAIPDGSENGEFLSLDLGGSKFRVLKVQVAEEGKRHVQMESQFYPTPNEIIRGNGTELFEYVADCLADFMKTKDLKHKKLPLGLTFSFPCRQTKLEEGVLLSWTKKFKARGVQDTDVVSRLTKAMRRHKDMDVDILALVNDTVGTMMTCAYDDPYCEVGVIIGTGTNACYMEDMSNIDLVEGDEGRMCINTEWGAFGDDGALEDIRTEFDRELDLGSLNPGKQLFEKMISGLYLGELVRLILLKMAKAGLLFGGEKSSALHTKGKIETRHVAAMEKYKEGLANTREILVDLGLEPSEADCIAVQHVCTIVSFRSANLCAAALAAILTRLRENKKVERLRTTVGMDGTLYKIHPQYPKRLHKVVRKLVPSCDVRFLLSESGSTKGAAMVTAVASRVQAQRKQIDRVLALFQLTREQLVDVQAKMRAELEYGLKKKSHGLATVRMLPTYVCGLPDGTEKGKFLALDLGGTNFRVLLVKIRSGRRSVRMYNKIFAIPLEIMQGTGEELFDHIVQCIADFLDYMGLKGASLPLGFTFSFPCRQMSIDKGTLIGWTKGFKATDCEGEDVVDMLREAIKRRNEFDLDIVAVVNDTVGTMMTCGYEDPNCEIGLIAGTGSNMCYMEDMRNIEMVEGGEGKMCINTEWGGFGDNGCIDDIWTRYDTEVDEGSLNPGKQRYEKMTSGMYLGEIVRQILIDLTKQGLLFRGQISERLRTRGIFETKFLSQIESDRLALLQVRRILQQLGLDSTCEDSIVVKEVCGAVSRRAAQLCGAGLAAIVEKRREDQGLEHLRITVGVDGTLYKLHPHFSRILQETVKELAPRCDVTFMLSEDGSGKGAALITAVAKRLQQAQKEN
Description: HKDC1 hexokinase inhibitors, dose response, biochemical, W721R variant (AID 504729). In kind it is functional.

Experiment [1] addresses Mitochondrial peptide methionine sulfoxide reductase (Bos taurus, UniProt P54149). The experiment in a line: Absorbance-based biochemical high throughput dose response assay for activators of Methionine sulfoxide reductase A (MsrA). It counts as functional.
The nature of experiment [2]: C. albicans growth with fluconazole, confirmation, fluorescence, retest (AID 2467). In kind it is functional, cell-based.
Experiment [3] can be described thus: NIH-3T3 fibroblast cytotoxicity, dose response, cytotoxicity control, cell-based, fluorescence, Alamar Blue, secondary assay (AID 2327).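 Further: NIH-3T3 mouse fibroblasts cultured with fluconazole at 8 µg/mL.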 In kind it is functional.
In experiment [4] the target is T2, Zinc finger protein mex-5 (Caenorhabditis elegans, UniProt Q9XUB2).
T2 sequence (Q9XUB2 whole entry): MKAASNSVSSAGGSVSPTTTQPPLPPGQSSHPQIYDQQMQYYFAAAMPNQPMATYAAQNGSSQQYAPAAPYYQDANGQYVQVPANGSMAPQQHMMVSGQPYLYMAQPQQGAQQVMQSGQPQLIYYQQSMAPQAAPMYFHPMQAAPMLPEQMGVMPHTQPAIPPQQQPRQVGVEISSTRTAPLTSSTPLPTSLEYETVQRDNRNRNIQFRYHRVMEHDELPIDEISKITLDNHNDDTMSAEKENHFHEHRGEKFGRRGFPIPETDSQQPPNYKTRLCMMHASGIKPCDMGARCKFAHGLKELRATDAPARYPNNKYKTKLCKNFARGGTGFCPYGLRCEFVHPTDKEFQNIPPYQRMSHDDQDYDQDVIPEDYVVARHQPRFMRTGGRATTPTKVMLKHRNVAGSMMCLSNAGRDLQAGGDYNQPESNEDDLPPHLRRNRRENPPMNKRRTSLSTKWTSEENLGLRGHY
The experiment in a line: MEX-5/TCR-2 RNA interaction inhibitors, dose response, biochemical, C. elegans, fluorescence polarization (AID 1960). On the technique in general: Fluorescence polarisation rises when a labelled molecule tumbles more slowly, as on binding a larger partner.

In a further experiment the target is Phospholipase A2 (Homo sapiens, UniProt P04054). It counts as functional.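 Further: confirmatory dose-response counterscreen on phospholipase A2, testing hits that came from an ultra-high-throughput screen for ATG4B inhibitors.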
The next experiment addresses Genome polyprotein (dengue virus type 2, UniProt P29990). The experiment in a line: Dengue-2 NS5 methyltransferase inhibitors, primary screen, biochemical, confirmation dose response (AID 588689). It counts as functional.
Experiment [5] has as its target Ribosomal protein S6 kinase beta-1 (Homo sapiens, UniProt P23443). It counts as functional.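 Further: measured as one member of a kinome-wide profiling panel.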
Experiment [6] deals with Calcium/calmodulin-dependent protein kinase type 1 (Homo sapiens, UniProt Q14012). In kind it is functional.
For experiment [7], the target named is Mitogen-activated protein kinase 12 (Homo sapiens, UniProt P53778). It counts as functional.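 Further: measured as one member of a kinome-wide kinase profiling panel.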
In experiment [8] the target is Protein kinase C delta type (Homo sapiens, UniProt Q05655). It counts as functional.
The target of experiment [9] is Serine/threonine-protein kinase PLK3 (Homo sapiens, UniProt Q9H4B4). It counts as functional.
Experiment [10] deals with RAC-alpha serine/threonine-protein kinase (Homo sapiens, UniProt P31749). In kind it is functional.
In experiment [11] the target is MAP kinase-activated protein kinase 3 (Homo sapiens, UniProt Q16644). In kind it is functional.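 Further: value comes from a kinome-wide profiling panel in which MAPKAPK3 is one of the panel members.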
Experiment [12] concerns the target Mast/stem cell growth factor receptor Kit (Homo sapiens, UniProt P10721). It counts as functional.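 Further: KIT entry within a kinase panel assay.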
In experiment [13] the target is Serine/threonine-protein kinase pim-2 (Homo sapiens, UniProt Q9P1W9). It counts as functional.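 Further: value comes from a broad kinase panel profiling study in which PIM2 was one of the panel members.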
For experiment [14], the target named is Serine/threonine-protein kinase D2 (Homo sapiens, UniProt Q9BZL6). It counts as functional.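 Further: measured against PRKD2 as one member of a kinome-wide kinase profiling panel.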
For experiment [15], the target named is Mitogen-activated protein kinase 1 (Homo sapiens, UniProt P28482). In kind it is functional.
The target of experiment [16] is Receptor tyrosine-protein kinase erbB-4 (Homo sapiens, UniProt Q15303). In kind it is functional.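 Further: ERBB4 member of a kinome-wide kinase profiling panel.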
In experiment [17] the target is Cyclin-dependent kinase 9 (Homo sapiens, UniProt P50750). In kind it is functional.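 Further: value from the CDK9 entry of a kinome-spanning kinase panel.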
Experiment [18] deals with Serine/threonine-protein kinase TAO1 (Homo sapiens, UniProt Q7L7X3). It counts as functional.
For experiment [19], the target named is Dual specificity protein kinase CLK2 (Homo sapiens, UniProt P49760). In kind it is functional.
Experiment [20] has as its target Cyclin-dependent kinase 8 (Homo sapiens, UniProt P49336). The experiment in a line: Navigating the Kinome. Panel member name: CDK8. It counts as functional.
For experiment [21], the target named is Serine/threonine-protein kinase D3 (Homo sapiens, UniProt O94806). It counts as functional.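 Further: determined within a kinase panel screen, with PRKCN as the panel member.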

Receptor tyrosine-protein kinase erbB-4, sequence (Q15303 whole entry): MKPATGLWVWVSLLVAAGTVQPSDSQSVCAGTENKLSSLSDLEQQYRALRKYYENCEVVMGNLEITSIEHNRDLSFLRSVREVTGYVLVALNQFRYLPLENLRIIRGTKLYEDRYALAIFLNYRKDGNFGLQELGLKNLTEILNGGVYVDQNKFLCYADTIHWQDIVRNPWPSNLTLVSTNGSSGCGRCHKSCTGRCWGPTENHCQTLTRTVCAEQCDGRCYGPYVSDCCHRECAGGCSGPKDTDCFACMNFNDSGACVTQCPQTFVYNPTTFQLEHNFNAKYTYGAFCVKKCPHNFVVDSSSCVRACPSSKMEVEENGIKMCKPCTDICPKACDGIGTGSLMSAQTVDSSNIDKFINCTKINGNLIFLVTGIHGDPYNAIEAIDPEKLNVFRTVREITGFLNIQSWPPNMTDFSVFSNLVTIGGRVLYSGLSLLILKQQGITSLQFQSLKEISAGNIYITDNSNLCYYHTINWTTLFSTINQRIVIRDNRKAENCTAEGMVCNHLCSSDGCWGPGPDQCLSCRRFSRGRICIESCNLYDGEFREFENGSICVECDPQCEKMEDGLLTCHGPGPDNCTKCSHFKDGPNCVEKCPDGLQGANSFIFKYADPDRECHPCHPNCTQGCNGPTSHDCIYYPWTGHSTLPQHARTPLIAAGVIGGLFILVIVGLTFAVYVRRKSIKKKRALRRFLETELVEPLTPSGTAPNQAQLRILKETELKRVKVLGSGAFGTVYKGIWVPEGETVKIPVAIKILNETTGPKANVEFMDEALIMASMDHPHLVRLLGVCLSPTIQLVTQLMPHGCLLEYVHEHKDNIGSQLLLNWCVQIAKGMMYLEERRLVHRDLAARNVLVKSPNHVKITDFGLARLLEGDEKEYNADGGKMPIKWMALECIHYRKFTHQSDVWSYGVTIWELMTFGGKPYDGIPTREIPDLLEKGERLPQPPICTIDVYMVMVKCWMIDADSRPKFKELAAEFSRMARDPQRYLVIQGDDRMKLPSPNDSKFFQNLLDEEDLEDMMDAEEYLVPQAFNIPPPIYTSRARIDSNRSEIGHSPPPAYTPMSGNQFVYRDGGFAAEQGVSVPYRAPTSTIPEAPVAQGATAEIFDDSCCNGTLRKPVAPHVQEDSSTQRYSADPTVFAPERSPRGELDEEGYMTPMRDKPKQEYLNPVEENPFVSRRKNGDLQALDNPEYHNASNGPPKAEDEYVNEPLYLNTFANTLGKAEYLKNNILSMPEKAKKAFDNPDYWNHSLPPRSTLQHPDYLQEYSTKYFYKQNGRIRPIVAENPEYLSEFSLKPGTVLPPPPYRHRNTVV
Serine/threonine-protein kinase D2, sequence (Q9BZL6 whole entry): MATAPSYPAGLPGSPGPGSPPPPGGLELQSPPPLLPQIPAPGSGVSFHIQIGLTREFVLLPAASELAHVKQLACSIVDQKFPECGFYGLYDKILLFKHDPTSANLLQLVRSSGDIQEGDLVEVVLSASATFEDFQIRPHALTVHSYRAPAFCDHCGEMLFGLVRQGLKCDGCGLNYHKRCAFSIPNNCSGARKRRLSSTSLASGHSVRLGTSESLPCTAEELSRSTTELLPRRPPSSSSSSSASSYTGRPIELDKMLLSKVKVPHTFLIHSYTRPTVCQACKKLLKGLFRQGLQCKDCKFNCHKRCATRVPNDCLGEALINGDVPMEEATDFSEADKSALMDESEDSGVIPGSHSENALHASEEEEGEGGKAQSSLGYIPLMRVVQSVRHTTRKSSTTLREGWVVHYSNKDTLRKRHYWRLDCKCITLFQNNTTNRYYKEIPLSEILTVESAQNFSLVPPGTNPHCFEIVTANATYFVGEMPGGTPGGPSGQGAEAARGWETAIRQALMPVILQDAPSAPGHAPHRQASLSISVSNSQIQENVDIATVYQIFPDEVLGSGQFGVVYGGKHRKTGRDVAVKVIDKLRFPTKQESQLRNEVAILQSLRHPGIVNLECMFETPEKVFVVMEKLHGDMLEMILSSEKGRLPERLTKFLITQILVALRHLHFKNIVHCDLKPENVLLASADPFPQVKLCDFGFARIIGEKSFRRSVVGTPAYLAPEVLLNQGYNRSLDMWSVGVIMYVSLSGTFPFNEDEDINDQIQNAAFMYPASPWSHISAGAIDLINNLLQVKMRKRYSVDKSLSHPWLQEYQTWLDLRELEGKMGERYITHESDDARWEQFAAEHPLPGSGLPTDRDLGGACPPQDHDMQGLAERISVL
Dual specificity protein kinase CLK2, sequence (P49760 whole entry): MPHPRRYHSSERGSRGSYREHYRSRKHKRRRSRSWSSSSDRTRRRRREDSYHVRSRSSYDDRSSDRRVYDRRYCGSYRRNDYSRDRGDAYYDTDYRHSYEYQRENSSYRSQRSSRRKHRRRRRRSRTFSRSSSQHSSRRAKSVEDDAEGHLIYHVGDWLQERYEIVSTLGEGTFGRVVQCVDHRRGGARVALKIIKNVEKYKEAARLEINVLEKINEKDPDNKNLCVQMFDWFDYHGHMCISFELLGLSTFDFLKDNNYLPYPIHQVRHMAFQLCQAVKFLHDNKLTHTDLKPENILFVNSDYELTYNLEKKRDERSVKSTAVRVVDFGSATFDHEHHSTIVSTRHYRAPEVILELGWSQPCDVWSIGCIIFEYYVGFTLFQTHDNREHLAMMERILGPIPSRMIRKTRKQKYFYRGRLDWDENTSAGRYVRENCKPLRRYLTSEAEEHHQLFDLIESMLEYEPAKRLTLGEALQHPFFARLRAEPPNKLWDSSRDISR
Mast/stem cell growth factor receptor Kit, sequence (P10721 whole entry): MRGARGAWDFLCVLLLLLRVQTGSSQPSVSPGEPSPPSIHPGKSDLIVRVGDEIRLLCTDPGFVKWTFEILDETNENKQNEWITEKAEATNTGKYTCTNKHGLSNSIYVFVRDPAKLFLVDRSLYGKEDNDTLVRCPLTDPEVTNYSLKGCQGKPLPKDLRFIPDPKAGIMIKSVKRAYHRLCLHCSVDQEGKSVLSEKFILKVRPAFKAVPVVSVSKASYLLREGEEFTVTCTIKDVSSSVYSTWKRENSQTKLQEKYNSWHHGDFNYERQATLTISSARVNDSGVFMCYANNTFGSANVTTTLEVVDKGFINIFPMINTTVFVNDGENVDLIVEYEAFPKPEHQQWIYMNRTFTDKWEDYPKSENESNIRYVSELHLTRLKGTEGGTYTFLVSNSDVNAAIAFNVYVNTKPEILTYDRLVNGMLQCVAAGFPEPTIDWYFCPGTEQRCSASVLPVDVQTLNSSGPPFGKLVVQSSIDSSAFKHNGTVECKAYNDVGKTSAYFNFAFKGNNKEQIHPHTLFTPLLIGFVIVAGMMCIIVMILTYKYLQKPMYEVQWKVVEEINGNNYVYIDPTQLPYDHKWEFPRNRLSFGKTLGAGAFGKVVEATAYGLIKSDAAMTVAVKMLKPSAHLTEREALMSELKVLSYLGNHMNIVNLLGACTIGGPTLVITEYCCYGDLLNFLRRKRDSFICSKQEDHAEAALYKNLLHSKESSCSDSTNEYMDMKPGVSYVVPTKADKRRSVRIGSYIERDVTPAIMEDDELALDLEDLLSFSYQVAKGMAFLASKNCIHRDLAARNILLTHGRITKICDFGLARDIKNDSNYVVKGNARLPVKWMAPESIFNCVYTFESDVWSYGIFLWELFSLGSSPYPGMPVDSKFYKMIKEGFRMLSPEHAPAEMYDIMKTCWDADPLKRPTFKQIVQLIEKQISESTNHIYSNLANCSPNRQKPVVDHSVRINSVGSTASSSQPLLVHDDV
RAC-alpha serine/threonine-protein kinase, sequence (P31749 whole entry): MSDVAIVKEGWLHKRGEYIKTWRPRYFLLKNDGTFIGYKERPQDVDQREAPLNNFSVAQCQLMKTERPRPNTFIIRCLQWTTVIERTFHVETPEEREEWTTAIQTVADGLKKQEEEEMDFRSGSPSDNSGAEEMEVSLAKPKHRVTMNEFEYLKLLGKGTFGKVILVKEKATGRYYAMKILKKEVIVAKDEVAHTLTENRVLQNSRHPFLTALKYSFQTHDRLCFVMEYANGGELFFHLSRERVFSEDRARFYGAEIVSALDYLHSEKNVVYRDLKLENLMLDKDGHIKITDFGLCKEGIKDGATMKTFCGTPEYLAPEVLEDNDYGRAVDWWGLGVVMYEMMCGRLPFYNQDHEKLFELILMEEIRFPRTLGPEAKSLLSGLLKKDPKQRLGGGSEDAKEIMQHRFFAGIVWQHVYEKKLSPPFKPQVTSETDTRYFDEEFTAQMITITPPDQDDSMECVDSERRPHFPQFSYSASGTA
Mitogen-activated protein kinase 1, sequence (P28482 whole entry): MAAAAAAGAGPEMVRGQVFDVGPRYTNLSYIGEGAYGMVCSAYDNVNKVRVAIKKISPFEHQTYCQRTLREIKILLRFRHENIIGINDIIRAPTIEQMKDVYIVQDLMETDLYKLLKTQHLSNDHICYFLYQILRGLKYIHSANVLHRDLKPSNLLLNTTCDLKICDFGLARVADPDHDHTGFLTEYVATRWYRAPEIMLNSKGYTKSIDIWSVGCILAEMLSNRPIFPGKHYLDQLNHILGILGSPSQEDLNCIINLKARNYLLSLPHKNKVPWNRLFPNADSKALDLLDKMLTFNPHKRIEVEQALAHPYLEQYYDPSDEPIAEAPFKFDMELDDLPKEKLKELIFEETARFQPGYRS
Phospholipase A2, sequence (P04054 whole entry): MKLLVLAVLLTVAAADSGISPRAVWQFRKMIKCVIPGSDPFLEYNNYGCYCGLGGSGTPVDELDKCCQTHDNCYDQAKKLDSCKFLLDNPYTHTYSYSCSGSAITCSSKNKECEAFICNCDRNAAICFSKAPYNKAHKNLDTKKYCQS
Serine/threonine-protein kinase pim-2, sequence (Q9P1W9 whole entry): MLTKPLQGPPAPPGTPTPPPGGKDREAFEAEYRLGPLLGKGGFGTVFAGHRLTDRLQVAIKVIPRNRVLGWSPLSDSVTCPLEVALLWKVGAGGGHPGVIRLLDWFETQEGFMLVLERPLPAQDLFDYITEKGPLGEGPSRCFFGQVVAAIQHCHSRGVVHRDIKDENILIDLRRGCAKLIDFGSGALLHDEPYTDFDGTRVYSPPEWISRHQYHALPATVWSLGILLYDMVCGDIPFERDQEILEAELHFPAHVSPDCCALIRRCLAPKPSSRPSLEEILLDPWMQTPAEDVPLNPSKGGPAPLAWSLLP

`O=C1C=C(NCc2ccccc2)c2ccccc2C1=O`: the IC50 (in general, the concentration that gives 50% inhibition) on Hexokinase HKDC1 was 2.5 µM (active). For the same molecule, the EC50 (as a rule, the midpoint of the concentration-response curve) in experiment [1] is 63.3 µM (inactive); in experiment [2], 1.84 µM (active); in [3], 2.61 µM (inconclusive).

Regarding `O=C(O)c1[nH]c2ccccc2c1C(c1cc(Cl)cc([N+](=O)[O-])c1O)c1c(C(=O)O)[nH]c2ccccc12`, the EC50 in [4] is 9.16 µM (active). The IC50 at Phospholipase A2 is 9.04 µM (active); on Genome polyprotein, 9.77 µM (active).

In the case of `CCOC(=O)c1cn(-c2ccc(O)cc2C)c2cc(-c3ccncc3)ccc2c1=O`, the Ki (as a rule, the equilibrium dissociation constant of an inhibitor or competing ligand from its target) is > 6.31 µM (inactive) in experiment [5]; > 7.94 µM (inactive) in experiment [6]; > 6.31 µM (inactive) in experiment [7]; 0.501 µM (active) in experiment [8]; > 7.94 µM (inactive) in experiment [9]; > 7.94 µM (inactive) in experiment [10]. In addition, the Ki in experiment [11] was > 10 µM (inactive); in experiment [12], > 1.26 µM (inactive); in [13], > 1.58 µM (inactive); in experiment [14], > 10 µM (inactive); in experiment [15], > 7.94 µM (inactive); in experiment [16], > 3.98 µM (inactive).

Consider `Cc1cc(=O)[nH]nc1-c1ccc(NC(=O)Nc2cc(C(F)(F)F)ccc2F)c(Cl)c1`, for which the Ki is > 1.58 µM (inactive) in [17]; > 6.31 µM (inactive) in [18]; > 3.98 µM (inactive) in experiment [19]; 0.158 µM (active) in [20]; > 3.98 µM (inactive) in [21].
